Data from patent US20240114940A1, “SACCHARIDE COMPOSITIONS HAVING SUCROSE-LIKE CHARACTERISTICS AND RELATED METHODS” (priority 2021, published 2024).

How the values were obtained:
Type in all cases: physicochemical
[1] = Breakdown products by GCMS after Maillard reaction in the presence of Leucine; conditions: 160° C.
Experimental: Controls were prepared addition of 1 mL of pH 7 buffer to the amino acids. The samples were rapidly heated to 160° C. and held at this temperature for 10 min. Samples were rapidly cooled afterwards, and absorbance at 500 nm was measured for each reaction mixture. Volatiles were analysed using gas chromatography mass spectrometry (GCMS) analysis. An Agilent Technologies 5975B Inert XL MSD gas chromatography, single quadruple mass spectrometer was used for analysis of volatiles. Samples were added to separate GCMS headspace vials and weighed. 0.03 g of 0.01% 3-heptanone in water was added and the vial was sealed for GCMS solid phase micro extraction (SPME) analysis. Samples were analysed in a randomized order. Samples were incubated and agitated at 250 RPM, at 60° C. for 15 min prior to SPME analysis of volatiles. The SPME fibre (50/30 DVB/CAR/PDMS, 23 Ga) extracted for 10 min, then thermally desorbed at 250° C. for 5 min. A 30 m×0.25 mm×0.25 μm HP-5MS column was used (Phenomenex, UK). Oven temperature settings: 31° C.-5 min, 5° C./min to 150° C., 30° C./min to 240° C. Inlet settings: 250° C., pressure 10.4 psi, flow 11.2 mL/min, split ratio 7:1. MS operated in full scan mode from 40 to 400 m/z with a scan time of 0.2s. The peak area of the aroma compounds was compared to the peak of the internal standard 3-heptanone and corrected for the weight of the sample.
The concentration of the different classes of Maillard reaction breakdown products is presented in Tables 9B-E. The same data as Tables 9B-E is also presented in FIG. 27. Concentrations are in parts per billion of the difference non-enzymatic breakdown products for the different compositions at 160° C. analysed by GCMS.

[2] = Heating of saccharide solutions in an open system (observation, ion-exchange chromatography)
Experimental: The following steps were performed to observe the impact of heat and pH on xylo-oligosaccharides: • 1. Four saccharide solutions comprising xylo-oligosaccharides of primarily degree of polymerization (DP) 2-6 (XOS) were created by dissolving saccharides in water, some solutions including an acidity regulator. The four solutions were: • a. XOS in water, pH 7 • b. XOS in water, pH 7 • c. XOS in water and lemon juice, pH 2 • d. XOS in water and baking soda, pH 9 • 2. The four solutions were heated, and the resulting products analyzed. For the four solutions: • a. XOS in water at pH 7 was heated to 110° C. (FIG. 1A). The solution was yellow when dissolved in water, and sticky, dissolving around 60° C. The solution formed soft, sticky threads at 110° C. […] XOS in water at pH 7 was heated to 177° C. (FIG. 1B). The solution got very dark at 177° C. and smelled burnt. The solution began darkening in color around 120° C., with the darkest color formation beginning at 150° C. The solution formed a hard crack consistency at 177° C. When water was added, the hard crack consistency re-dissolved slowly. • c. XOS in water and lemon juice at pH 2 was heated to 177° C. (FIG. 1C). This solution behaved the same as solution (b). • d. […]
The following steps were performed to observe the impact of heat and pH on cello-oligosaccharide: • 1. […] The four solutions were heated, and the resulting products analyzed. […]

[3] = Non-enzymatic breakdown products in confectionery mixtures (milk, butter, saccharides); conditions: final confectionery mixture
[4] = Carbonyls/ketones, Maillard reaction in the presence of Leucine, GCMS
[5] = Furans, Maillard reaction in the presence of Leucine, GCMS
[6] = Pyrazines, Maillard reaction in the presence of Leucine, GCMS

Structure (SMILES): OC[C@H]1O[C@@](CO)(O[C@H]2O[C@H](CO)[C@@H](O)[C@H](O)[C@H]2O)[C@@H](O)[C@@H]1O [Sucrose]
- 2-Butanone concentration [1, 4]: 9.73 ppb
- 2-Propanone, 1-hydroxy- concentration [1, 4]: 45.73 ppb
- Diacetyl (2,3-Butanedione) concentration [1, 4]: 41.79 ppb
- Furan, 2-methyl- concentration [1, 5]: 0.42 ppb
- Furfural concentration [1, 5]: 0.16 ppb
- Pyrazine, 2,5-diethyl- concentration [1, 6]: 24.28 ppb
- Pyrazine, 2,5-dimethyl- concentration [1, 6]: 2111.75 ppb
- Pyrazine, 2-ethyl-5-methyl- concentration [1, 6]: 554.43 ppb
- Pyrazine, ethyl- concentration [1, 6]: 8.8 ppb
- Pyrazine, methyl- concentration [1, 6]: 20.49 ppb
- Isovaleraldehyde (Butanal, 3-methyl-) concentration ([1]; Strecker aldehydes, Maillard reaction in the presence of Leucine, GCMS): 3412.25 ppb
- Isovaleraldehyde concentration ([1]; with leucine): 3400 ppb
- degradation after heating ([2]; 177° C. at pH 7 and pH 4, open system): degrades
- degradation after heating ([2]; 177° C. at pH 10, open system): does not degrade
- Concentration of 3-methyl-3-(2-oxopropylamino)butan-2-one [3]: 0.00 ppb
- Concentration of Acetic acid [3]: 0.01 ppb
- Concentration of Benzaldehyde [3]: 0.13 ppb
- Concentration of Furfural [3]: 0.01 ppb
- Concentration of Isovaleraldehyde [3]: 0.17 ppb
